Results: patent US8487108B2, “Piperidinyl carbamate intermediates for the synthesis of aspartic protease inhibitors” (Vitae Pharmaceuticals, Inc., priority 2005, dated 2013)

biological target: T1, trypsin-activated recombinant human renin (Homo sapiens, UniProt P00797); experiment: Renin fluorescence assay (internally quenched peptide substrate); format: biochemical; conditions: compounds I*
T1 sequence (P00797 67-406): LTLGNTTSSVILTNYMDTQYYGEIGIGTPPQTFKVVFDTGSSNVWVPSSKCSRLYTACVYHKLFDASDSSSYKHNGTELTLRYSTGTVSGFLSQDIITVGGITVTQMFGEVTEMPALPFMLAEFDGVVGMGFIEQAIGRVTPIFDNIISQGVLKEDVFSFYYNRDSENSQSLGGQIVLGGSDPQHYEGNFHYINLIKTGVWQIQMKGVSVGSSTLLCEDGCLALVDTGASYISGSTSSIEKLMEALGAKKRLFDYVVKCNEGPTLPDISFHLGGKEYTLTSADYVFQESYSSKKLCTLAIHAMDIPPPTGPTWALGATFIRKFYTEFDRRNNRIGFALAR
Method: The sequence of this peptide corresponds to the sequence of human angiotensinogen. The following test protocol can be used. All reactions are carried out in a flat bottom white opaque microtiter plate. A 4 μL aliquot of 400 μM renin substrate (DABCYL-γ-[…]) in 192 μL assay buffer (50 mM BES, 150 mM NaCl, 0.25 mg/mL bovine serum albumin, pH7.0) is added to 4 μL of test compound in DMSO at various concentrations ranging from 10 μM to 1 nM final concentrations. Next, 100 μL of trypsin-activated recombinant human renin (final enzyme concentration of 0.2-2 nM) in assay buffer is added, and the solution is mixed by pipetting. The increase in fluorescence at 495 nm (excitation at 340 nm) is measured for 60-360 minutes at rt using a Perkin-Elmer Fusion microplate reader. The slope of a linear portion of the plot of fluorescence-increase as a function of time is then determined, and the rate is used for calculating percent inhibition in relation to uninhibited control. […] (Wang G. T. et al. Anal. Biochem. 1993, 210, 351; Nakamura, N. et al. J. Biochem. (Tokyo) 1991, 109, 741; Murakami, K. et al. Anal Biochem. 1981, 110, 232).

IC50, < 0.001 µM:
CNC[C@H](CC1CCCCCC1)NC(=O)N1CCC[C@@H]([C@@H](OCCNC(=O)OC)c2cccc(F)c2)C1 [I*-39a, methyl 2-((R)-((R)-1-((S)-1-cycloheptyl-3-(methylamino)propan-2-ylcarbamoyl)piperidin-3-yl)(3-fluorophenyl)methoxy)ethylcarbamate]
CNC[C@H](CC1CCCCC1)NC(=O)N1CCC[C@@H]([C@@H](OCCNC(=O)OC)c2cc(F)ccc2F)C1 [I*-63a, methyl 2-((R)-((R)-1-((S)-1-cyclohexyl-3-(methylamino)propan-2-ylcarbamoyl)piperidin-3-yl)(2,5-difluorophenyl)methoxy)ethylcarbamate]
CNC[C@H](CC1CCC(F)(F)CC1)NC(=O)N1CCC[C@@H]([C@@H](OCCNC(=O)OC)c2cccc(F)c2)C1 [I*-120a, methyl 2-((R)—((R)-1-((S)-1-(4,4-difluorocyclohexyl)-3-(methylamino)propan-2-ylcarbamoyl)piperidin-3-yl)(3-fluorophenyl)methoxy)ethylcarbamate]

IC50, > 0.05 µM:
CNC[C@@H](CC1(C)CCCCC1)NC(=O)N1CCC[C@@H]([C@@H](OCCNC(=O)OC)c2cccc(Cl)c2)C1 [I*-89a, methyl 2-((R)-(3-chlorophenyl)((R)-1-((R)-1-(methylamino)-3-(1-methylcyclohexyl)propan-2-ylcarbamoyl)piperidin-3-yl)methoxy)ethylcarbamate]
CNC[C@@H](CC1(C)CCCCC1)NC(=O)N1CCC[C@@H]([C@@H](OCCNC(=O)OC)c2cc(F)cc(F)c2)C1 [I*-94a, methyl 2-((R)-(3,5-difluorophenyl)((R)-1-((R)-1-(methylamino)-3-(1-methylcyclohexyl)propan-2-ylcarbamoyl)piperidin-3-yl)methoxy)ethylcarbamate]
CNC[C@H](CCCOC)NC(=O)N1CCC[C@@H]([C@@H](OCCNC(=O)OC)c2cccc(Cl)c2)C1 [I*-1a]

IC50, < 0.01 µM:
CNC[C@H](CC1CCCCC1)NC(=O)N1CCC[C@@H]([C@@H](CCCNC(=O)OC)c2cccc(F)c2)C1 [I*-23a, methyl (R)-4-((S)-1-((S)-1-cyclohexyl-3-(methylamino)propan-2-ylcarbamoyl)piperidin-3-yl)-4-(3-fluorophenyl)butylcarbamate]
CCC(C)(C)C[C@@H](CNC)NC(=O)N1CCC[C@@H]([C@@H](OCCNC(=O)OC)c2cccc(Cl)c2)C1 [I*-34a, methyl 2-((R)-(3-chlorophenyl)((R)-1-((S)-4,4-dimethyl-1-(methylamino)hexan-2-ylcarbamoyl)piperidin-3-yl)methoxy)ethylcarbamate]
CNC[C@H](C[C@H]1CCC(C)(C)OC1)NC(=O)N1CCC[C@@H]([C@@H](OCCNC(=O)OC)c2cc(F)cc(F)c2)C1 [I*-155a, methyl 2-((R)-(3,5-difluorophenyl)((R)-1-((S)-1-((R)-6,6-dimethyl-tetrahydro-2H-pyran-3-yl)-3-(methylamino)propan-2-ylcarbamoyl)piperidin-3-yl)methoxy)ethylcarbamate]
CNC[C@H](CC12CC3CC(CC1C3)C2)NC(=O)N1CCC[C@@H]([C@@H](OCCNC(=O)OC)c2cc(F)ccc2F)C1 [I*-149a, methyl 2-((R)-((R)-1-((S)-1-(3-noradamantyl)-3-(methylamino)propan-2-ylcarbamoyl)piperidin-3-yl)(2,5-difluorophenyl)methoxy)ethylcarbamate]
CNC[C@H](C[C@H]1CCCC[C@@H]1O)NC(=O)N1CCC[C@@H]([C@@H](OCCNC(=O)OC)c2cccc(Cl)c2)C1 (relative stereo) [I*-105a, methyl 2-((R)-(3-chlorophenyl)((R)-1-((S)-1-((1R,2S)-2-hydroxycyclohexyl)-3-(methylamino)propan-2-ylcarbamoyl)piperidin-3-yl)methoxy)ethylcarbamate]
